Results from patent publication US20110251128A1, “THYMOSIN Beta4 PEPTIDES PROMOTE TISSUE REGENERATION” (The Board of Regents of the University of Texas System, priority 2010, published 2011).
Entries after “also recorded” stand apart in the source; their conditions may differ. Where two headings read alike, the source gives them in different places.

How the values were obtained:
full thickness wound = settings: cited from earlier work; for increase of epithelial layer restoration in the wound: topical or injected, compared to untreated
myocardial cells = assay: Beating frequency of myocardial cells in embryonic cardiac explants on collagen gel; type: cell-based, mouse; settings: 300 ng peptide or 100 ng TB4; normalized to PBS and TB4 controls (TB4 = 100.00)
Procedure: In vitro embryonic cardiac cell migration assay. The outflow tract of the heart was dissected from E11.5 wild-type mouse embryos and placed on rat-tail collagen matrix (Roche) endothelial layer facing down as described (Bock-Marquette et al., 2004; Runyan and Markwald, 1983). After 10 h of attachment, three independent explants were incubated with 300 ng of peptide #1-17, 100 ng of TB4, or 3 μl PBS in […] OPTIMEM medium (Invitrogen/Gibco) respectively. Medium and protein were changed every two days. To monitor migration distance photos were taken daily using Nikon DXM1200F microscope at 4× magnification. Cell migration distance was quantified by ImageJ software (http at rsb.info.nih.gov/ij/) in three separate explants and three measurements for each treatment respectively. Beating frequency of myocardial cells was counted three times at 7-15 days of treatment. Calculations were normalized to PBS and TB4 treated positive and negative controls. After 15 days at 37° C. in 5% CO2, explants were fixed in 4% paraformaldehyde in PBS for 10 min at room temperature. Explants were stored at 4° C. in PBS for further immunocytochemical investigations.

cardiomyocytes = assay: TUNEL assay on hearts after coronary ligation; type: in vivo, mouse; settings: 24 h after ligation
Text: (§1) Animals and Surgical procedures. Mice: Myocardial infarctions were produced in seventy C57BL/6J male mice at 16 weeks of age (25-30 g) by ligation of the left anterior descending (LAD) coronary artery as described (Garner et al., 2003). All animal protocols were reviewed and approved by the University of Texas Southwestern Medical School Institutional Animal Care Advisory Committee and were in compliance with the rules governing animal use as published by the NIH. Mice were sedated in an isoflurane chamber (5%) for 60 seconds until self-designed coaxial mask could be safely applied. The mask supplied continuous isoflurane (2.0%) and oxygen (98.0%) under positive pressure from a Harvard small animal respirator throughout the procedures. […] Effective doses of the peptides were calculated based on optimal in vitro cell migration effect and on biodistribution calculations of full length TB4 (Mora et al., 1997). […]
(§2) Immunohistochemistry. Adult mouse cardiac tissue was fixed in 4% paraformaldehyde and sections were analyzed by immunohistochemistry. […] Number of sm a-actin positive capillaries and Wt-1 positive cells were counted at the infarction border zone in high power photographs at all levels of the sections in three peptide, TB4 and PBS treated hearts respectively.

pS368-Cx43 = assay: Western blot of pS368-Connexin43 in infarcted hearts; type: in vivo, mouse; settings: ischemic border, 21 days, compared to PBS
Text: as §1
(§3) Western blot. […] The protein fraction was isolated from the interphase of the Trizol purification as recommended by the manufacturer; 10 μg of the total protein was loaded and analyzed by Western blot with protein-specific primary antibodies: VEGF, p-Marcks, p-Akt, and GAPDH (1:100) (Santa Cruz), Connexin43 (1:50) (Invitrogen), N-Cadherin (1:5000) (BD Biosciences) and pS368-Connexin43 (1:1000) (Cell Signaling Technology).

N-Cadherin = assay: Western blot of N-Cadherin in infarcted hearts; type: in vivo, mouse; settings: infarction core and border zone, 21 days after infarction
Text: as §1, §3

Akt = assay: Western blot anti-phosphoS473-Akt on heart lysates after coronary ligation; type: in vivo, mouse; settings: 24 hours after treatment
Text: as §1, §3

[1] = test system: Wt-1 positive cardiac progenitors; assay: Immunohistochemistry, Wt-1 positive progenitor cells at infarction border; type: in vivo, mouse; settings: border of the infarction, 21 days / three weeks after peptide injections
Text: as §1, §2

keratinocytes = settings: within four to five hours after treatment, compared to untreated keratinocytes; cited from earlier work

Substance: Thymosin β4 [TB4]
- increase of epithelial layer restoration in the wound (full thickness wound; by day four): 42%
- increase of epithelial layer restoration in the wound (full thickness wound; by day seven): 61%
- wound contraction (full thickness wound; compared to untreated wounds): more than 11%
- collagen deposition in the wound and angiogenesis (full thickness wound; rat, in vivo): stimulated collagen deposition
- frequency of myocardial beating (myocardial cells): 100.00+/−5.03 beats/75 sec
- TUNEL positive cardiomyocytes (myocardial cell death) (cardiomyocytes): significant decrease of myocardial cell death
- pS368-Cx43 (Cx43 phosphorylation) (pS368-Cx43): significantly lower; also recorded: decrease in Cx43 phosphorylation
- N-Cadherin expression (N-Cadherin): slight, but non-significant increase; also recorded: slightly upregulated
- Akt activation (phosphoS473-Akt) (Akt): increased Akt activation
- number of Wt-1 positive cells [1]: increased significantly; also recorded: significant increase
- increase of keratinocyte migration (keratinocytes): two to threefold
